Melting point data for 109 molecules are collected here from a melting point compilation (Tetko et al.).

Broadly, the melting point is the temperature, or range, at which the solid turns liquid. `N#Cc1ccc(C=Cc2ccccc2C=O)c([N+](=O)[O-])c1`: the melting point is 210 °C.

On to `CC12CCC(O)CC1CCC1C2CCC2(C)C1CCC21OCCO1` (centres undefined), for which the melting point is 151 °C.

The molecule `O=C1NCCN1c1ncc([N+](=O)[O-])s1` came in with a melting point of 261 °C.

On to `FC(F)(Cl)C(F)(Cl)Cl`, for which the melting point is -35 °C.

Regarding `CC(C)(C)c1ncc(C(=O)Nc2cccc(Br)c2)nc1Cl`, the melting point turned out to be 105 °C.

In turn, `CCCCc1ccc(/N=N/c2ccc(O)cc2)cc1` registered a melting point of 49 to 49.5 °C.

`CC12CC3CC(C1)CC(C)(C3)C2` registered a melting point of -30 °C.

On to `Nc1ccccc1CCCCc1ccccc1N`, for which the melting point turned out to be 74 °C.

`c1ccc2c(c1)ccc1c3ccccc3sc21` gave a melting point of 189 °C.

Turning to `OCc1c(F)ccc(F)c1F`, the melting point was determined as 46 °C.

In turn, `CCOC(=O)c1c(-c2ccccc2)csc1NC(=O)c1ccc(Cl)cc1Cl` yielded a melting point of 149 to 150 °C.

On to `O=C(C=Cc1ccc(O)cc1)c1ccccc1`, for which the melting point is 184 °C.

Molecule `COc1ccc(OC)c(C=CC(=O)O)c1` registered a melting point of 147 to 150 °C.

With `CCCCCCCCCCCCC1CCCCC1`, the melting point was determined as 12.5 °C.

`CC(=O)c1cnccn1` displayed a melting point of 77 °C.

In turn, `Nc1ccc(N=O)c(N)n1` yielded a melting point of 260 to 266 °C.

The molecule `N#CSCc1c(Cl)cccc1Cl` gave a melting point of 39 to 42 °C.

Consider `C#Cc1ccc(Br)cc1`, for which the melting point was determined as 66 °C.

Molecule `O=Cc1ccc(C(=O)O)s1` yielded a melting point of 169 °C.

`CC(C)c1cc(C(C)C)c(S(=O)(=O)Cl)c(C(C)C)c1`: the melting point was determined as 96 °C.

As for `CC(C)(C)OC(=O)N1CCN(c2ccc(CO)cn2)CC1`, the melting point fell in the range of 112 to 115 °C.

On to `OC1(c2ccc(Cl)c(C(F)(F)F)c2)CCNCC1`, for which the melting point lay within 135 to 140 °C.

On to `O=C(c1c(F)c(F)c(F)c(F)c1F)n1ccnc1`, for which the melting point is 56 °C.

With `O=C(O)Cc1ccc(Cl)nc1`, the melting point was found to be 174 °C.

Turning to `CCCCCCCCCCCCCCCCCCC(C)c1ccccc1` (centres undefined), the melting point was 29 °C.

Consider `Cc1cc(C(F)(C(F)(F)F)C(F)(F)F)ccc1NC(=O)c1cccc(I)c1C(=O)NC(C)(C)CS(C)(=O)=O`, for which the melting point turned out to be 218 °C.

The molecule `CC(C)CCCC(C)C1CCC2C3CC(=O)C4CC(O)CCC4(C)C3CCC12C` (centres undefined) came in with a melting point of 140 to 142 °C.

`OCCC12CC3CC(CC(C3)C1)C2` registered a melting point of 74 °C.

As for `Clc1ccc(O[Si]23OCCN(CCO2)CCO3)cc1`, the melting point was determined as 166 °C.

Take `CCOC(=O)C1=C(C)OC(N)=C(c2nc3ccccc3s2)C1c1ccc(Cl)cc1` (centres undefined): the melting point stood at 189 °C.

On to `CC(=O)c1cccc2ccccc12`, for which the melting point worked out at 34 °C.

`CCC(C(=O)Nc1cccc2ccccc12)C1CCC(OC)CC1` (centres undefined) returned a melting point of 163 °C.

As to `Cc1c(Cl)c(Cl)cc(Cl)c1Cl`, the melting point was determined as 93.5 °C.

On to `Cc1cc(F)ccc1CC#N`, for which the melting point is 26 °C.

`O=[N+]([O-])C=Cc1cccc([N+](=O)[O-])c1` had a melting point of 126 °C.

Molecule `Nc1cc(Cl)ccc1S` displayed a melting point of 98 °C.

In turn, `O=[N+]([O-])c1ccc(-c2csc(CCl)n2)cc1` yielded a melting point of 154 to 158 °C.

`O=Cc1c(F)cccc1Cl`: the melting point stood at 37 °C.

Turning to `CCCCC(CC)COC(=O)c1ccc(C(=O)OCC(CC)CCCC)cc1` (centres undefined), the melting point lay in the range of 30 to 34 °C.

`O=C(Oc1ccc(OC(=O)c2ccccc2)cc1)c1ccccc1` gave a melting point of 115 °C.

As for `C=Cc1ccc2c(c1)OCCOCCOCCOCCOCCO2`, the melting point fell in the range of 57 to 60 °C.

In turn, `COc1ccccc1C(N)=O` had a melting point of 129 °C.

`c1ccc(-c2ccccc2-c2ccccc2-c2ccccc2)cc1` came in with a melting point of 118 °C.

As for `CCC(COCCOc1c(I)cc(I)c(NC(C)=O)c1I)C(=O)O` (centres undefined), the melting point is 130 °C.

Take `CCOC(=O)c1cn[nH]c1NC(=O)Nc1ccc(Cl)cc1`: the melting point lay in the range of 260 to 261 °C.

For `Cc1cc([N+]([O-])=Nc2ccccc2)ccc1[N+]([O-])=Nc1ccccc1`, the melting point turned out to be 100 °C.

`O=C(O)CC(CC(=O)O)c1ccc(Cl)cc1` came in with a melting point of 166 °C.

In turn, `O=c1oc(-c2c(F)cccc2Cl)cc2ccccc12` showed a melting point of 241 °C.

In turn, `CCOC(=O)c1c[nH]nc1C` registered a melting point of 136 to 138 °C.

In turn, `CC(=O)Nc1ccc([N+](=O)[O-])c(Br)c1` yielded a melting point of 145 °C.

As for `C[C@H]([C@@H](O)c1ccccc1)N1CCCC1`, the melting point turned out to be 45 °C.

With `CN(C)c1cccc(C(=O)O)c1`, the melting point worked out at 151 °C.

`CC(C)NCC1CCc2cc(CO)c([N+](=O)[O-])cc2N1` (centres undefined) came in with a melting point of 148 °C.

In turn, `NC(=S)c1cccc2c1OCCO2` yielded a melting point of 106 to 109 °C.

The molecule `O=[N+]([O-])c1cccc(OCCBr)c1` had a melting point of 39 °C.

Take `COc1cc(C(=O)Cc2ccccc2)c([N+](=O)[O-])cc1OC`: the melting point was found to be 152 °C.

In turn, `O=C(O)C(O)C(O)C(=O)Nc1ccc(Cl)cc1` (single isomer, unassigned; (+)) gave a melting point of 193 to 195 °C.

Consider `N#Cc1ccc(Cl)c(Cl)c1`, for which the melting point amounted to 72 °C.

In the case of `O=C(C=Cc1ccccc1)c1cccc(C(=O)C=Cc2ccccc2)c1`, the melting point stood at 142 °C.

`CC(=O)NC(C)C(=O)O` (racemic) gave a melting point of 137 °C.

Molecule `FC(F)(F)c1cccc(Br)n1` displayed a melting point of 49.5 °C.

The molecule `CCc1ccc(C(=O)NN(C(=O)c2cc(C)cc(C)c2)C(C)(C)C)cc1` yielded a melting point of 191 °C.

`Cc1nc2ccccc2n1CCc1n[nH]c(=S)o1` yielded a melting point of 209 °C.

Consider `O=[N+]([O-])c1ccc(O)cc1F`, for which the melting point was 92 to 95 °C.

Take `CCOC(=O)C(C#N)=NNc1ccc(Cl)cc1`: the melting point lay within 161 to 162 °C.

With `CCCCCC(O)CC(=O)CCc1ccc(OC)c(O)c1` (centres undefined), the melting point turned out to be 31 °C.

On to `Oc1cc(OCc2ccccc2)ccn1`, for which the melting point worked out at 196 °C.

Molecule `COc1cc(Cl)nc(OC)n1` yielded a melting point of 74 to 76 °C.

For `Cn1nc(-c2ccccc2)cc1CN`, the melting point fell in the range of 48 to 49 °C.

Molecule `O=C1C(c2cccc(C3=[N+]([O-])c4cc([N+](=O)[O-])ccc4C3=O)c2)=[N+]([O-])c2cc([N+](=O)[O-])ccc21` gave a melting point of 287 °C.

With `c1cc(-c2csnn2)ccc1OCC1CO1` (centres undefined), the melting point lay within 70 to 72 °C.

For `Cc1ccc2c(c1[N+](=O)[O-])C(=O)c1c(Cl)c(Cl)c(Cl)c(Cl)c1C2=O`, the melting point is 262 °C.

The molecule `CCOc1cc([N+](=O)[O-])c(OCC)cc1N1CCOCC1` displayed a melting point of 139 to 141 °C.

`C/C(=N\NC(N)=O)C(=O)C(C)Cc1ccccc1` (centres undefined) showed a melting point of 112 °C.

`NS(=O)(=O)c1cc(C(=O)O)c(Cl)cc1Cl` came in with a melting point of 230 to 234 °C.

Molecule `S=C(NCCN1CCOCC1)NC1CCCCC1` yielded a melting point of 125 to 126 °C.

Regarding `CC(C)(C)NCC(O)COc1cc(Cl)ccc1Cl` (centres undefined), the melting point was 82 °C.

As for `COc1ccc(-c2nnc3n2NCS3)cc1`, the melting point amounted to 200 °C.

Molecule `O=[N+]([O-])c1cc(C(F)(F)F)c(Cl)c([N+](=O)[O-])c1Nc1ncc(C(F)(F)F)cc1Cl` came in with a melting point of 117 °C.

Turning to `Cc1c(C)c(C)c2c(=O)n3ccccc3cc2c1C`, the melting point was 221 °C.

On to `CCCCCC1=CCCC1`, for which the melting point was -83 °C.

With `C[C@H](O)[C@@H](N)C(=O)O`, the melting point was found to be 274 °C.

As to `CC(C)C1=C(O)C(=O)C2=C(C1=O)C(O)CC1C(C)(C)CCCC21C` (centres undefined), the melting point stood at 214 °C.

`Cc1nsc(-c2ccccc2)n1` returned a melting point of 50 to 52 °C.

On to `Cc1nc(-c2ccc(CO)cc2)no1`, for which the melting point lay within 131 to 132 °C.

`C=CCN(CC=C)C(SC)=C(C#N)C(N)=O` yielded a melting point of 110 °C.

The molecule `COc1ccc(C2CC(=O)c3c(O)cc(OC4OC(COC5OC(C)C(O)C(O)C5O)C(O)C(O)C4O)cc3O2)cc1O` (centres undefined) gave a melting point of 262 °C.

In turn, `Nc1c(O)cccc1[N+](=O)[O-]` gave a melting point of 216 °C.

With `Cc1ccc(N2C(=O)C=CC2=O)cc1Cl`, the melting point was 143 °C.

`CC(C)(C)c1ccc(-c2nnc(S)n2-c2cccc(C(F)(F)F)c2)cc1` came in with a melting point of 256 to 260 °C.

In turn, `CCC(C)(C)C(=O)O` returned a melting point of -14 °C.

Consider `C[C@@H](NC(=O)c1ccccc1)c1ccccc1`, for which the melting point was in the range of 123 to 125 °C.

The molecule `ON=CNc1ncccn1` registered a melting point of 184 to 186 °C.

`Cc1ccccc1CC(NC(=O)OCC1c2ccccc2-c2ccccc21)C(=O)O` (racemic) gave a melting point of 157 to 164 °C.

In turn, `C=CC(C)(CCC=C(C)C)OC(C)=O` (centres undefined) returned a melting point below 25 °C.

In turn, `COCCl` came in with a melting point of -104 °C.

Molecule `CC(=O)c1sc(-c2cccs2)nc1C` showed a melting point of 121 to 122 °C.

As to `c1ccc2c(c1)OCCOCCNCCOCCO2`, the melting point fell in the range of 147 to 149 °C.

Molecule `COC(=O)c1sc(SC)c(C#N)c1N` displayed a melting point of 207 °C.

For the molecule `O=C(O)CCOc1ccc2c(c1)[nH]c1ccccc12`, the melting point came to 184 °C.

Molecule `ON=C(Cl)c1ccc(Cl)cc1Cl` displayed a melting point of 93 to 95 °C.

For the molecule `O=[N+]([O-])c1cccc(OCCN2CCOCC2)c1`, the melting point lay in the range of 50 to 53 °C.

`Cc1noc(N)c1C`: the melting point was in the range of 119 to 120 °C.

Molecule `COc1ccc2cc(Br)ccc2c1CCl` came in with a melting point of 144 to 146 °C.

Turning to `COc1ccc([N+](=O)[O-])c(C(=O)O)c1`, the melting point is 133 °C.

Molecule `NCCNc1ccc([N+](=O)[O-])cn1` registered a melting point of 126 to 128 °C.

As to `CSc1nn(-c2ccccc2)cc1C(N)=S`, the melting point lay in the range of 130 to 133 °C.

For the molecule `Cc1nc(I)c(I)[nH]1`, the melting point was 194 to 195 °C.

For the molecule `COc1ccc(C(=O)CCCCl)cc1`, the melting point worked out at 32 °C.
